Test results reported in US20240116985A1, “STAPLED PEPTIDES AND METHODS THEREOF” (priority 2020, published 2024).
Read-outs that look alike come from different tables or passages of the source.

Experiments:
[1] = biological target: T1, full-length beta-Catenin (Uniprot ID P35222) (Homo sapiens, UniProt P35222); test: Fluorescence polarization IC50 (beta-catenin / 5FAM-TCF4 10-53 competition); type: binding; settings: fluorescence polarization; read-out: beta-Catenin FP IC50
T1 construct: 10 nM full-length beta-Catenin (Uniprot ID P35222)
T1 sequence (P35222 1-781): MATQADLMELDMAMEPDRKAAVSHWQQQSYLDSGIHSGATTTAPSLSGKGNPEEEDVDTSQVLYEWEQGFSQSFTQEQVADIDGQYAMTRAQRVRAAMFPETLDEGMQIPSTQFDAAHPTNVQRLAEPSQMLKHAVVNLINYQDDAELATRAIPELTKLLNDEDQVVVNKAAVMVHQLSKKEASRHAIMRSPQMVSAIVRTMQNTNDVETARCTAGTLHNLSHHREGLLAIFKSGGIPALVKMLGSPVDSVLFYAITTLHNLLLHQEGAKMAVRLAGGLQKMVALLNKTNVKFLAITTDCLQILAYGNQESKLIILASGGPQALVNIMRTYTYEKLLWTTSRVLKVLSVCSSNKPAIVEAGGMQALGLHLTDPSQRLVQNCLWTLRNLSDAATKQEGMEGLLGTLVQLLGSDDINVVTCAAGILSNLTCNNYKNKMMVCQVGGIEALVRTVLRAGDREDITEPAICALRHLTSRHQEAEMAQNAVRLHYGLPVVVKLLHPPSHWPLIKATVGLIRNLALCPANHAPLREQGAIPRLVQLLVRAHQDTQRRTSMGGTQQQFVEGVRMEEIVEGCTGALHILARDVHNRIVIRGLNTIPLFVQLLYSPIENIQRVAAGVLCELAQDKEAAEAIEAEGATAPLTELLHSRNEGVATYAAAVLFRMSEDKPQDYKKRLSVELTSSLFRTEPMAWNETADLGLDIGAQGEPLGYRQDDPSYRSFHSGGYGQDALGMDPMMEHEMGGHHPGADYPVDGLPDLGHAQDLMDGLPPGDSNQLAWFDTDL

[2] = biological target: T2, beta-catenin/TCF4 engagement (Homo sapiens, UniProt P35222); test: Nano-BRET target engagement assay (B-cat-Halo & TCF4-Luc in HEK293 cells); type: cell-based; settings: read-out: NanoBRET Abs IC50
T2 construct: expressed in transfected cells; host or cells: HEK293
T2 sequence (P35222 1-781): T1 sequence (P35222 1-781)

SMILES | IC50 [1] [µM] | IC50 ([2]; absolute IC50) [µM] | IC50 [2] [µM]
CC(=O)N1CCC[C@]12CC=CCCCC1(CCCC=CCCCOC(=O)N3CC[C@@](C(=O)N[C@@H](Cc4ccccc4C(F)(F)F)C(=O)N[C@@H](Cc4csc5ccccc45)C(=O)N[C@@H](CCC(N)=O)C(=O)N[C@@H](CC(C)C)C(=O)N[C@@H](C(N)=O)[C@H](C)O)(C3)NC(=O)[C@H](CC(C)C)NC(=O)[C@H](Cc3ccccc3)NC(=O)[C@H](C)NC(=O)[C@H](C)NC(=O)[C@H](Cc3cccc(C(=O)O)c3)NC(=O)[C@H](CC(=O)O)NC1=O)NC(=O)[C@H](CC(C)(C)C)NC(=O)[C@H](CC(=O)O)NC2=O (stereo partly drawn) [I-2397, Ac-PL3-Asp-Npg-B5-Asp-3COOHF-Ala-Ala-Phe-Leu-PyrS2-2F3MeF-BztA-Gln-Leu-dThr-NH2] | 0.053 | 7.8 | 
CC(=O)N1CCC[C@]12CC=CCCCC1(CCCC=CCCCOC(=O)N3CC[C@@](C(=O)N[C@@H](Cc4ccccc4C(F)(F)F)C(=O)N[C@@H](Cc4cccc(Cl)c4)C(=O)N[C@@H](CO)C(N)=O)(C3)NC(=O)[C@H](CC(C)C)NC(=O)[C@H](Cc3ccccc3)NC(=O)[C@H](C)NC(=O)[C@H](C)NC(=O)[C@H](Cc3cccc(C(=O)O)c3)NC(=O)[C@H](CC(=O)O)NC1=O)NC(=O)[C@H](CC(C)(C)C)NC(=O)[C@H](CC(=O)O)NC2=O (stereo partly drawn) [I-2226, Ac-PL3-Asp-Npg-B5-Asp-3COOHF-Ala-Ala-Phe-Leu-PyrS2-2F3MeF-3C1F-Ser-NH2] | 0.097 | 10.6 | 
CCCC[C@@H]1NC(=O)[C@H](Cc2cccc(C(=O)O)c2)NC(=O)[C@H](CC(=O)O)NC(=O)C2(CCCC=CCCCOC(=O)N3CC[C@@](C(=O)N[C@@H](Cc4ccsc4)C(=O)N[C@@H](Cc4csc5ccccc45)C(=O)N[C@@H](C)C(N)=O)(C3)NC(=O)[C@H](CC(C)C)NC(=O)[C@H](Cc3ccccc3)NC(=O)[C@H](C)NC1=O)CCCC=CC[C@]1(CCCN1C(C)=O)C(=O)N[C@@H](CC(=O)O)C(=O)N[C@@H](CC(C)(C)C)C(=O)N2 (stereo partly drawn) [I-1919, Ac-PL3-Asp-Npg-B5-Asp-3COOHF-nLeu-Ala-Phe-Leu-PyrS2-3Thi-BztA-Ala-NH2] | 0.033 |  | 4.7
CC(=O)N1CCC[C@]12CC=CCCCC1(CCCC=CCCCOC(=O)N3CC[C@@](C(=O)N[C@@H](Cc4ccsc4)C(=O)N[C@@H](Cc4ccc(F)c(Br)c4)C(=O)N[C@@H](CCC(N)=O)C(N)=O)(C3)NC(=O)[C@H](CC(C)C)NC(=O)[C@H](Cc3ccccc3)NC(=O)[C@H](C)NC(=O)[C@H](C)NC(=O)[C@H](Cc3cccc(C(=O)O)c3)NC(=O)[C@H](CC(=O)O)NC1=O)NC(=O)[C@H](CC(C)(C)C)NC(=O)[C@H](CC(=O)O)NC2=O (stereo partly drawn) [I-2287, Ac-PL3-Asp-Npg-B5-Asp-3COOHF-Ala-Ala-Phe-Leu-PyrS2-3Thi-3Br4FF-Gln-NH2] | 0.007 | 7.1 | 
CC(=O)N1CCC[C@]12CC=CCCCC1(CCCC=CCCCOC(=O)N3CC[C@@](C(=O)N[C@@H](Cc4ccccc4Cl)C(=O)N[C@@H](Cc4csc5ccccc45)C(=O)N[C@@H](CCC(N)=O)C(N)=O)(C3)NC(=O)[C@H](CC(C)C)NC(=O)[C@H](Cc3ccccc3)NC(=O)[C@H](C)NC(=O)[C@H](C)NC(=O)[C@H](Cc3ccccc3C(=O)O)NC(=O)[C@H](CC(=O)O)NC1=O)NC(=O)[C@H](CC(C)(C)C)NC(=O)[C@H](CC(=O)O)NC2=O (stereo partly drawn) [I-1658, Ac-PL3-Asp-Npg-B5-Asp-2COOHF-Ala-Ala-Phe-Leu-PyrS2-2C1F-BztA-Gln-NH2] | 0.019 | 9.8 | 
CC(=O)N1CCC[C@]12CC=CCCCC1(CCCC=CCCCOC(=O)N3CC[C@@](C(=O)N[C@@H](Cc4ccsc4)C(=O)N[C@@H](Cc4csc5ccccc45)C(=O)N[C@@H](CC(C)(C)C)C(N)=O)(C3)NC(=O)[C@H](CC(C)C)NC(=O)[C@H](Cc3ccccc3)NC(=O)[C@H](C)NC(=O)[C@H](CCC(N)=O)NC(=O)[C@H](Cc3cccc(C(=O)O)c3)NC(=O)[C@H](CC(=O)O)NC1=O)NC(=O)[C@H](CC(C)(C)C)NC(=O)[C@H](CC(=O)O)NC2=O (stereo partly drawn) [I-2192, Ac-PL3-Asp-Npg-B5-Asp-3COOHF-Gln-Ala-Phe-Leu-PyrS2-3Thi-BztA-Npg-NH2] | 0.022 |  | 16.1
CC(=O)N1CCC[C@]12CC=CCCCC1(CCCC=CCCCOC(=O)N3CC[C@@](C(=O)N[C@@H](Cc4ccsc4)C(=O)N[C@@H](Cc4csc5ccccc45)C(=O)N[C@@H](CCC(N)=O)C(N)=O)(C3)NC(=O)[C@H](CC(C)C)NC(=O)[C@H](Cc3ccccc3)NC(=O)[C@H](C)NC(=O)[C@H](C)NC(=O)[C@H](CCC(=O)O)NC(=O)[C@H](CC(=O)O)NC1=O)NC(=O)[C@H](CC(C)(C)C)NC(=O)[C@H](CC(=O)O)NC2=O (stereo partly drawn) [I-1437, Ac-PL3-Asp-Npg-B5-Asp-Glu-Ala-Ala-Phe-Leu-PyrS2-3Thi-BztA-Gln-NH2] | 0.007 | 7.1 | 
CC(=O)N1CCC[C@]12CC=CCCCC1(CCCC=CCCCOC(=O)N3CC[C@@](C(=O)N[C@@H](Cc4ccsc4)C(=O)N[C@@H](Cc4cccc(Br)c4)C(=O)N[C@@H](C)C(N)=O)(C3)NC(=O)[C@H](C(C)C)NC(=O)[C@H](Cc3ccccc3)NC(=O)[C@H](C)NC(=O)[C@H](CCC(N)=O)NC(=O)[C@H](Cc3cccc(C(=O)O)c3)NC(=O)[C@H](CC(=O)O)NC1=O)NC(=O)[C@H](CC(C)(C)C)NC(=O)[C@H](CC(=O)O)NC2=O (stereo partly drawn) [I-2308, Ac-PL3-Asp-Npg-B5-Asp-3COOHF-Gln-Ala-Phe-Val-PyrS2-3Thi-3BrF-Ala-NH2] | 0.008 | 6 | 
CCCC[C@@H]1NC(=O)[C@H](CC(=O)O)NC(=O)[C@]2(CC=CCCCC3(CCCC=CCCCOC(=O)N4CC[C@@](C(=O)N[C@@H](Cc5ccccc5)C(=O)N[C@@H](Cc5csc6ccccc56)C(=O)N[C@@H](CCC(N)=O)C(N)=O)(C4)NC(=O)[C@H](CCCC)NC(=O)[C@H](Cc4ccccc4)NC(=O)[C@H](C)NC(=O)[C@H](C)NC(=O)[C@H](CC(=O)O)NC(=O)[C@H](CC(=O)O)NC3=O)NC1=O)CCCN2C(C)=O (stereo partly drawn) [I-1405, Ac-PL3-Asp-nLeu-B5-Asp-Asp-Ala-Ala-Phe-nLeu-PyrS2-Phe-BztA-Gln-NH2] | 0.009 | 40.1 | 
CC(=O)N1CCC[C@]12CC=CCCCC1(CCCC=CCCCOC(=O)N3CC[C@@](C(=O)N[C@@H](Cc4ccccc4C(F)(F)F)C(=O)N[C@@H](Cc4ccc5c(c4)CCC5)C(=O)N[C@@H](CO)C(N)=O)(C3)NC(=O)[C@H](CC(C)C)NC(=O)[C@H](Cc3ccccc3)NC(=O)[C@H](C)NC(=O)[C@H](C)NC(=O)[C@H](Cc3cccc(C(=O)O)c3)NC(=O)[C@H](CC(=O)O)NC1=O)NC(=O)[C@H](CC(C)(C)C)NC(=O)[C@H](CC(=O)O)NC2=O (stereo partly drawn) [I-2297, Ac-PL3-Asp-Npg-B5-Asp-3COOHF-Ala-Ala-Phe-Leu-PyrS2-2F3MeF-5IndA-Ser-NH2] | 0.068 | 5.5 | 
CC(=O)N1CCC[C@]12CC=CCCCC1(CCCC=CCCCOC(=O)N3CC[C@@](C(=O)N[C@@H](Cc4ccsc4)C(=O)N[C@@H](Cc4csc5ccccc45)C(=O)N[C@H](C(N)=O)[C@@H](C)O)(C3)NC(=O)[C@H](CC(C)C)NC(=O)[C@H](Cc3ccccc3)NC(=O)[C@H](C)NC(=O)[C@H](C)NC(=O)[C@H](CC(=O)O)NC(=O)[C@H](CC(=O)O)NC1=O)NC(=O)[C@H](CC(C)(C)C)NC(=O)[C@H](CC(=O)O)NC2=O (stereo partly drawn) [I-1494, Ac-PL3-Asp-Npg-B5-Asp-Asp-Ala-Ala-Phe-Leu-PyrS2-3Thi-BztA-Thr-NH2] | 0.005 | 14.7 | 
